Structures can show the parent of a compound that is named as a salt.
Target: T1, HIV integrase (Human immunodeficiency virus type 1 group M subtype B, UniProt P12497, F1332H)
T1 construct: HIV integrase full length gene (J. Virol., 67, 425-437 (1993)) in which phenylalanine at codon 185 was substituted by histidine; made in house; host or cells: Escherichia coli BL21(DE3)
Assay: Determination of enzyme (HIV integrase) inhibitory activity
Assay type: biochemical
Details: recombinant integrase protein (F185H), donor DNA/target DNA, absorbance at 450 nm
Protocol: HIV integrase full length gene (J. Virol., 67, 425-437 (1993)) in which phenylalanine at codon 185 was substituted by histidine, was inserted between the restriction enzyme NdeI and XhoI sites of plasmid pET21a(+) (Novagen), whereby an integrase expression vector pET21a-IN-F185H was constructed.
Escherichia coli recombinant BL21(DE3) transformed with plasmid pET21a-IN-F185H obtained in (i) was shake cultured at 30° C. in a liquid medium containing ampicillin. When the culture reached the logarithmic growth phase, isopropyl-β-D-thiogalactopyranoside was added to promote expression of integrase gene. The culture was continued for 3 hr to promote accumulation of the integrase protein. The recombinant E. coli was collected in pellets by centrifugal separation and preserved at −80° C.
The E. coli was suspended in Lysis buffer (20 mM HEPES (pH 7.5), 5 mM DTT, 10 mM CHAPS, 10% glycerol) containing 1M sodium chloride and subjected to repeat pressurization and depressurization for rupture, and centrifugal separation at 4° C., 40,000×g, 60 min to recover a water-soluble fraction (supernatant). This was diluted 10-fold with Lysis buffer free of sodium chloride, mixed with SP-Sepharose (Pharmacia Corporation) and stirred at 4° C. for 60 min to allow adsorption of integrase protein to the resin. The resin was washed with Lysis buffer containing 100 mM sodium chloride and the integrase protein was eluted with Lysis buffer containing 1M sodium chloride.
The eluted integrase protein solution was subjected to a Superdex 75 (Pharmacia Corporation) column for gel filtration. The protein was eluted with Lysis buffer containing 1M sodium chloride.
The obtained fractions of the integrase protein were collected and preserved at −80° C.
The following DNA synthesized by Greiner was dissolved in TE buffer (10 mM Tris-hydrochloric acid (pH 8.0), 1 mM EDTA) and mixed with donor DNA, target DNA, and each complementary strand (+ and − strands) to 1 μM. The mixture was heated at 95° C. for 5 min, 80° C. for 10 min, 70° C. for 10 min, 60° C. for 10 min, 50° C. for 10 min and 40° C. for 10 min and kept at 25° C. to give a double stranded DNA, which was used for the test. Donor DNA ([…] attached to the 5′ terminal) Donor + strand: 5′-Biotin-ACCCTTTTAGTCAGTGTGGAAAATCTCTAGCA-3′ (SEQ ID NO:1) Donor − strand: 5′-ACTGCTAGAGATTTTCCACACTGACTAAAAG-3′ (SEQ ID NO:2) Target DNA (+, − strands both having digoxigenin added at 3′ terminal) Target + strand: 5′-TGACCAAGGGCTAATTCACT-Dig-3′ (SEQ ID NO:3) Target − strand: 5′-AGTGAATTAGCCCTTGGTCA-Dig-3′ (SEQ ID NO:4)
The donor DNA was diluted with TE buffer to 10 nM, of which 50 μl was added to each well of streptavidin-coated microtiter plate (Roche) and allowed to adsorb at 37° C. for 60 min. The plate was washed with phosphate buffer (Dulbecco's PBS, Sanko Junyaku Co., Ltd.) containing 0.1% Tween 20 and phosphate buffer. Then, an enzyme reaction mixture (70 μl), a test substance (10 μl) diluted with the reaction mixture and 100 μg/ml integrase protein (10 μl) were added to each well and reacted at 37° C. for 60 min.
Then, 50 nM target DNA (10 μl) was added, reacted at 37° C. for 10 min and washed with phosphate buffer containing 0.1% Tween 20 to stop the reaction.
Then, 100 mU/ml peroxidase labeled anti-digoxigenin antibody solution (Roche, 100 μl) was added, and the mixture was reacted at 37° C. for 60 min, followed by washing with phosphate buffer containing 0.1% Tween 20.
A peroxidase color solution (Bio Rad, 100 μl) was added and allowed to react at room temperature for 4 min. The color reaction was stopped by adding 1N sulfuric acid (100 μl). The absorbance at 450 nm was measured.
The HIV integrase inhibitory activity (IC50) of the compound of the present invention was calculated from the inhibition rate according to the following formula. […]

| SMILES | IC50 [nM] |
| --- | --- |
| CC(C)[C@@H](CO)n1cc(C(=O)O)c(=O)c2cc(Cc3cccc(Cl)c3F)c(OCc3ccc(C(=O)O)cc3)cc21 [Example 4-57, 7-(4-carboxybenzyloxy)-6-(3-chloro-2-fluorobenzyl)-1-((1S)-1-(hydroxymethyl)-2-methylpropyl)-4-oxo-1,4-dihydroquinoline-3-carboxylic acid] | 3.8 |
| CC(C)[C@@H](CO)n1cc(C(=O)O)c(=O)c2cc(Cc3cccc(Cl)c3F)c(N3CCN[C@H](C)C3)cc21 [Example 4-29, 6-(3-chloro-2-fluorobenzyl)-1-((1S)-1-(hydroxymethyl)-2-methylpropyl)-7-((3R)-3-methylpiperazin-1-yl)-4-oxo-1,4-dihydroquinoline-3-carboxylic acid] | 5.1 |
| COc1cc2c(cc1Cc1ccc(F)c(Cl)c1)c(=O)c(C(=O)O)cn2[C@H](CO)C(C)C [Example 1-1, 6-(3-chloro-4-fluorobenzyl)-1-((1S)-1-(hydroxymethyl)-2-methylpropyl)-7-methoxy-4-oxo-1,4-dihydroquinoline-3-carboxylic acid] | 19 |
| CC(C)[C@@H](CO)n1cc(C(=O)O)c(=O)c2cc(Cc3cccc(Cl)c3F)c(OCS(N)(=O)=O)cc21 [Example 4-52, 7-((aminosulfonyl)methoxy)-6-(3-chloro-2-fluorobenzyl)-1-((1S)-1-(hydroxymethyl)-2-methylpropyl)-4-oxo-1,4-dihydroquinoline-3-carboxylic acid] | 6.6 |
| CC(C)[C@@H](CO)n1cc(C(=O)O)c(=O)c2cc(Cc3cccc(Cl)c3F)c(O[C@@H]3CCNC3)cc21 [Example 4-37, 6-(3-chloro-2-fluorobenzyl)-1-((1S)-1-(hydroxymethyl)-2-methylpropyl)-4-oxo-7-((3R)-pyrrolidin-3-yloxy)-1,4-dihydroquinoline-3-carboxylic acid hydrochloride] | 4.4 |
| CC(=O)N1CCN(c2cc3c(cc2Cc2cccc(Cl)c2F)c(=O)c(C(=O)O)cn3[C@H](CO)C(C)C)CC1 [Example 4-11, 7-(4-acetylpiperazin-1-yl)-6-(3-chloro-2-fluorobenzyl)-1-((1S)-1-(hydroxymethyl)-2-methylpropyl)-4-oxo-1,4-dihydroquinoline-3-carboxylic acid] | 6.8 |
| CC1CN(c2cc3c(cc2Cc2cccc(Cl)c2F)c(=O)c(C(=O)O)cn3[C@H](CO)C(C)C)CC(C)O1 (stereo partly drawn) [Example 4-31, 6-(3-chloro-2-fluorobenzyl)-7-(2,6-dimethylmorpholin-4-yl)-1-((1S)-1-(hydroxymethyl)-2-methylpropyl)-4-oxo-1,4-dihydroquinoline-3-carboxylic acid] | 13 |
| CCc1cc2c(cc1Cc1cccc(Cl)c1F)c(=O)c(C(=O)O)cn2[C@H](CO)C(C)C [Example 4-4, 6-(3-chloro-2-fluorobenzyl)-7-ethyl-1-((1S)-1-(hydroxymethyl)-2-methylpropyl)-4-oxo-1,4-dihydroquinoline-3-carboxylic acid] | 4.7 |
| CC(C)[C@@H](CO)n1cc(C(=O)O)c(=O)c2cc(Cc3cccc(Cl)c3F)c(OC3CCN(C)CC3)cc21 [Example 4-14, 6-(3-chloro-2-fluorobenzyl)-1-((1S)-1-(hydroxymethyl)-2-methylpropyl)-7-(1-methylpiperidin-4-yloxy)-4-oxo-1,4-dihydroquinoline-3-carboxylic acid] | 5.4 |
| CC(C)[C@H]1COc2cc(Cc3cccc(Cl)c3F)cc3c(=O)c(C(=O)O)cn1c23 [Example 5-1, (3S)-8-(3-chloro-2-fluorobenzyl)-3-isopropyl-6-oxo-2,3-dihydro-6H-1-oxa-3a-aza-phenalene-5-carboxylic acid] | 160 |
| CC(C)[C@@H](CO)n1cc(C(=O)O)c(=O)c2cc(Cc3cccc(Cl)c3F)c(N3CCSCC3)cc21 [Example 4-32, 6-(3-chloro-2-fluorobenzyl)-1-((1S)-1-(hydroxymethyl)-2-methylpropyl)-4-oxo-7-(thiomorpholin-4-yl)-1,4-dihydroquinoline-3-carboxylic acid] | 7.1 |
